From patent US12065427B2, “Heterocyclic compounds capable of activating STING” (BOEHRINGER INGELHEIM INTERNATIONAL GMBH, priority 2021, dated 2024)
≈ marks a conversion by molar mass, not a printed value.

Assays:
[1] = test system: Human STING (hSTING, residues 155-341); assay: Interaction with hSTING as determined by Differential Scanning Fluorimetry (DSF); assay type: binding; details: 100 μM test compounds, 5 μM target protein
Outline: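 Thermal shift of hSTING (residues 155-341, 5 μM) with test compounds at 100 μM in 20 mM Tris, 150 mM NaCl, pH 7.5, using 5× SYPRO Orange. Ramped 25 to 95 °C at 0.5 °C per cycle (15 s/cycle) by real-time PCR fluorescence. Tm from duplicate melting curves, averaged.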

STING HAQ-variant = molecular target: T1, STING HAQ-variant (Homo sapiens, UniProt Q86WV6, G230A/H232R/R293Q/R71H); assay: IRF-inducible SEAP reporter assay in THP1-Blue ISG cells, STING HAQ-variant; assay type: cell-based; details: STING HAQ-variant (parental or re-introduced), 24 hours incubation
T1 construct: parental THP1-Blue™ ISG cell lines (which express endogenously HAQ); host or cells: THP1-Blue ISG (parental, endogenous HAQ) or STING-KO clone re-transduced with HAQ (MSCV-ires-GFP-Blasti)
Outline: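 THP1-Blue ISG cells expressing STING HAQ, either endogenously (parental) or re-introduced after CRISPR knockout, were seeded at 10000 cells/well. They received 8-point compound dilutions (0.5% DMSO final) for 24 hours at 37° C. IRF-driven SEAP was read with Quanti-Blue at OD 620 nm after 30 minutes, and EC50 came from four-parameter fits.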

[2] = Cellular permeability measurements, bidirectional Caco-2 assay; details: human, Caco-2, pH 7.4
STING H232R-variant = molecular target: T2, STING H232R-variant (Homo sapiens, UniProt Q86WV6, H232R); assay: IRF-inducible SEAP reporter assay in THP1-Blue ISG cells, STING H232R-variant; assay type: cell-based; details: STING H232R-variant (WT), 24 hours incubation
T2 construct: expressed in transfected cells; host or cells: THP1-Blue ISG hSTING KO clone, retroviral MSCV-ires-GFP-Blasti
Outline: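 THP1-Blue ISG cells with endogenous STING deleted by CRISPR and retrovirally re-expressing human STING H232R; 8-point compound dilutions, 0.5% DMSO final, 24 h at 37 °C. SEAP read by Quanti-Blue, 30 min, OD 620 nm; EC50 and Hill slope from four-parameter fit.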

STING R232H-variant = molecular target: T3, STING R232H-variant (Homo sapiens, UniProt Q86WV6); assay: IRF-inducible SEAP reporter assay in THP1-Blue ISG cells, STING R232H-variant; assay type: cell-based; details: 24 hours incubation
T3 construct: expressed in transfected cells; host or cells: THP1-Blue ISG hSTING KO clone, retroviral MSCV-ires-GFP-Blasti
Outline: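 THP1-Blue ISG cells, endogenous STING knocked out by CRISPR and re-expressing hSTING R232H, with IRF-inducible SEAP reporter. Treated 24 h at 37 °C with 8-point compound dilutions (0.5% DMSO final); SEAP read by Quanti-Blue OD 620 nm after 30 min. EC50 from four-parameter fit.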

STING R293Q-variant = molecular target: T4, STING R293Q-variant (Homo sapiens, UniProt Q86WV6, H232R/R293Q); assay: IRF-inducible SEAP reporter assay in THP1-Blue ISG cells, STING R293Q-variant; assay type: cell-based; details: 24 hours incubation
T4 construct: expressed in transfected cells; host or cells: THP1-Blue ISG hSTING KO clone, retroviral MSCV-ires-GFP-Blasti
Outline: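 THP1-Blue ISG cells with endogenous STING knocked out (CRISPR) and retrovirally re-expressing human STING R293Q; 10000 cells/well, compound 24 h at 37 °C, 0.5% DMSO final. SEAP read by Quanti-Blue (30 min, OD 620 nm); EC50 and Hill slope from 8-point four-parameter fit.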

STING AQ-variant = molecular target: T5, STING AQ-variant (Homo sapiens, UniProt Q86WV6, G230A/H232R/R293Q); assay: IRF-inducible SEAP reporter assay in THP1-Blue ISG cells, STING AQ-variant; assay type: cell-based; details: 24 hours incubation
T5 construct: expressed in transfected cells; host or cells: THP1-Blue ISG hSTING KO clone, retroviral MSCV-ires-GFP-Blasti
Outline: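 THP1-Blue ISG cells with endogenous STING knocked out by CRISPR and re-expressing the human STING AQ variant; compounds in 8-point dilution, final DMSO 0.5%, 24 h at 37 °C. SEAP read after 30 min with Quanti-Blue as OD 620 nm; EC50 and Hill slope from four-parameter fits.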

[3] = Solubility measurements (HTS) at pH 6.8; assay type: physicochemical; details: kinetic from dmso stock; aqueous McIlvaine buffer pH 6.8, 24 h at room temperature, from 10 mM DMSO stock; read-out: Soblubility
Experimental: Aqueous solubilities were determined from 10 mM stock solutions of the compounds in DMSO diluted to a final concentration of 250 μM with aqueous McIlvaine buffer at pH 6.8, or with acetonitrile/water (1:1) as a reference. Samples were shaken for 24 h at room temperature in 96-well plates (Whatman Uniplate® 96 wells, 750 μL, polypropylene, round bottom). The plate was then centrifuged at 3,000 rpm for 2 min. 250 μL of each sample were transferred to a Millipore MultiScreenHTS filter plate with a polycarbonate membrane, pore size 0.45 μm. Filtrates were collected by centrifugation at 3,000 rpm for 2 min. The dissolved concentrations were determined by UPLC/UV (Ultra-Performance Liquid Chromatography/ultraviolet) on a Waters ACQUITY UPLC® SQD system equipped with a Waters ACQUITY UPLC® BEH 2.1×50 mm C18 column, particle size 1.7 μm, using a short gradient with water/0.1% formic acid as solvent A and acetonitrile/0.1% formic acid as solvent B (5 to 95% B with 1.7 min total cycle time). Compounds signals were measured with a photodiode array UV detector operated at 254 nm. Solubilities were determined with a one point calibration by comparing peak areas relative to the reference standard using Waters Empower software.

in vitro = details: human, Caco-2, pH 7.4

T1 sequence (Q86WV6 whole entry R71H/G230A/H232R/R293Q): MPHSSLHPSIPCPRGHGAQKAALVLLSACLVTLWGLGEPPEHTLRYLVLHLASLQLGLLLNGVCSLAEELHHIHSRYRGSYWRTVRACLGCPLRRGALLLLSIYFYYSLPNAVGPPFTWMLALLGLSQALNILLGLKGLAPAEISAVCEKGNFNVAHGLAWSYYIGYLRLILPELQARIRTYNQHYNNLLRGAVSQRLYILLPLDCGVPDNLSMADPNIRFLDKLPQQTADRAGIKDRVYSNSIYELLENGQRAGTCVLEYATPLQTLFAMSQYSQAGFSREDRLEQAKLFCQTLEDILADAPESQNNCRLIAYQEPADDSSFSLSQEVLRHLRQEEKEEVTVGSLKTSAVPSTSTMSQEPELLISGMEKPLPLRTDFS
T5 sequence (Q86WV6 whole entry G230A/H232R/R293Q): as the sequence (Q86WV6 whole entry R71H/G230A/H232R/R293Q) above, with H71R counted along it
T4 sequence (Q86WV6 whole entry H232R/R293Q): as the sequence (Q86WV6 whole entry R71H/G230A/H232R/R293Q) above, with H71R, A230G counted along it
T2 sequence (Q86WV6 whole entry H232R): as the sequence (Q86WV6 whole entry R71H/G230A/H232R/R293Q) above, with H71R, A230G, Q293R counted along it
T3 sequence (Q86WV6 whole entry, stated change not applied): as the sequence (Q86WV6 whole entry R71H/G230A/H232R/R293Q) above, with H71R, A230G, R232H, Q293R counted along it

Row | Structure (SMILES) | thermal shift (ΔTm) [1] [K] | EC50 (STING HAQ-variant) [nM] | efflux ratio at 10 μM [2] | EC50 (STING H232R-variant) [nM] | EC50 (STING R232H-variant) [nM] | EC50 (STING R293Q-variant) [nM] | EC50 (STING AQ-variant) [nM] | solubility kinetic at 24 h [3] [µg/mL] | Papp A→B at 10 μM (in vitro) [×10⁻⁶ cm/s] | efflux ratio at 10 μM (in vitro)
1 | Cc1cccc2c(-c3cccc4nn(C)cc34)nn(-c3ccc(N4CC5(COC5)C4)nc3)c12 [compound 3, 2′,7-dimethyl-1-(6-{2-oxa-6-azaspiro[3.3]heptan-6-yl}pyridin-3-yl)-1H,2′H-3,4′-biindazole] | 20 | 3000 | 0.6 |  |  |  |  |  |  | 
2 | Cc1cccc2c(-c3cccc4nn(C)cc34)nn(-c3ccc(N4CC5C(C4)C5C(=O)O)nc3)c12 (stereo not drawn) [Example #59, 3-(5-{2′,7-dimethyl-1H,2′H-[3,4′-biindazol]-1-yl}pyridin-2-yl)-3-azabicy-clo[3.1.0]hexane-6-car-boxylic acid] | 21 | 200 |  | 100 | 100 | 200 | 100 | 66 (≈ 142 µM) | 11 | 2.5
3 | Cn1cc2c(-c3nn(-c4ccc(N5CCC(C(=O)O)CC5)nc4)c4c(C(F)(F)F)cccc34)cccc2n1 [Example #67, 1-{5-[2′-methyl-7-(trifluo-romethyl)-1H,2′H-[3,4′-biindazol]-1-yl]pyridin-2-yl}piperidine-4-carboxylic acid] | 23 | 2200 |  | 700 | 800 | 2100 | 2300 | 82 (≈ 158 µM) | 16 | 1.2
4 | Cc1cccc2c(-c3cccc4nn(C)cc34)nn(-c3ccc(N4CCC(C(=O)O)CC4)nc3)c12 [Example #57, 1-(5-(2′,7-dimethyl-1H,2′H-[3,4′-biindazol]-1-yl)pyridin-2-yl)piperidine-4-carboxylic acid] | 17 | 700 |  | 200 | 200 | 600 | 300 | 80 (≈ 171 µM) | 15 | 1.2
